Experimental data: US20070231202A1 (priority 2006, published 2007)

Columns and labels:
[1] = system: prions (10% brain homogenates from hamsters with scrapie); assay type: in vivo, hamster; conditions: hydrogen peroxide vapor of higher concentrations and/or higher plasma density
[2] = system: prions; conditions: 59% solution admitted into sterilization chamber under vacuum, vapor at one point excited into plasma

SMILES: OO [hydrogen peroxide]
- inactivating prions, rendering article non-infectious for prion diseases [1]: effective in inactivating prions
- inactivation of prions on the instruments [2]: failed to sufficiently inactivate prions
